Assay results from patent publication US7132279B2, “Epidermal melanocyte culture formulations” (New York Eye & Ear Infirmary, priority 2003, dated 2006).
Where no end group is shown, it is not given here.

Key:
[1] = tested on: epidermal melanocytes; assay: Cell growth of cultured epidermal melanocytes by cell counting (6 days); format: cell-based, human
Method: (§1) Three deleted media were used for the study, (i) growth factor-deleted medium, (ii) cAMP-elevating agent deleted medium and (iii) serum-depleted medium. Various testing substances were added to the three deleted media above. These substances include bFGF, HGF, epinephrine and α-MSH. The deleted medium without the test substance was the negative control and the complete medium is the positive control.
Human skin specimens containing epidermis were obtained from a donor. The specimens were incubated in 0.25% trypsin solution (GIBCO, Carlsbad, Calif.) for 15 minutes at 37° C., followed by a 10 minute incubation with 0.2% EDTA (Sigma, St. Louis, Mo.) solution. The epidermal sheets were gently treated with forceps to dissociate the epidermal cells and to yield an epidermal cell suspension. The epidermal cells were centrifuged and seeded into a 25 cm^2 flask with the culture medium. The flask was incubated at 37° C. in an atmosphere of 95% humidified air and 5% CO2. Geneticin (Sigma, St. Louis, Mo.) was added (100 μg/ml) for three days to eliminate keratinocytes and fibroblasts. The medium was changed every three days. The melanocytes typically reached confluence in two weeks. After reaching confluence, the melanocytes were detached using trypsin-EDTA solution, centrifuged, diluted and seeded for subculture. At the time of transplantation, the melanocytes were detached using trypsin-EDTA solution, centrifuged and resuspended with F12 medium.
Cell counting was used to evaluate the effect of the test substance on growth of epidermal melanocytes. Epidermal melanocytes were plated in 6-well plates at a density of 1×10^5 cells per well with medium. After 24 hours, medium was replaced by the testing media. The media was changed every three days. After six days, the cells were detached with trypsin-EDTA solution and neutralized with culture medium with 10% serum. The cell suspension was centrifuged and the pellet was resuspended in 1 ml F12 medium, 20 μl of the cell suspension was collected into the tip of a Pasteur pipette and transferred to a hemocytometer. The hemocytometer was observed under an optical microscope. Cells falling in four […] areas bounded by three parallel lines were counted. The cell number was obtained using Formula I shown below (Freshney, 1987, Culture of Animal Cells. Wiley-Liss, Inc., New York, 2nd edition). The average of four counts was calculated. Triplicate samples were assayed in all experiments. c=n×10^4 FORMULA I • where c=concentration (cells/ml), n=number of cells counted.

[2] = tested on: epidermal melanocytes; assay: Melanin production of cultured epidermal melanocytes (optical density at 475 nm); format: cell-based, human; conditions: 6 days
Method: as §1
Melanocytes cultured as described above were detached by trypsin-EDTA solution and counted in a hemocytometer. The cell suspensions were centrifuged and the pellet was resuspended in 1N NaOH. Melanin concentration was determined by measurement of optical density at 475 nm by a spectrophotometer and compared with a standard curve obtained using synthetic melanin (Sigma, St. Louis, Mo.). Melanin content is expressed as μg/culture or ng/cell (Hu et al., 1995, Invest. Ophthalmol Vis Sci 36:931).

[3] = tested on: epidermal melanocytes; assay: Migration of cultured epidermal melanocytes in Boyden chambers; format: cell-based, human; conditions: for Migration of epidermal melanocytes: cAMP deleted medium
Method: Cell migration experiments were performed on early passages of cells in 48-well Boyden chambers (Neuroprobe, Bethesda, Md.). Cultured epidermal melanocytes were dissociated with 0.05% trypsin-EDTA (Sigma, St. Louis, Mo.) at 37° C. for 2–3 minutes, neutralized by culture medium with 10% FBS. The cells were centrifuged and resuspended in culture medium. The lower half of the Boyden chambers contained culture medium with or without tested substances. An 8 μm pore cellulose nitrate filter separated the upper and lower wells. Epidermal melanocytes (3×10^4) suspended in 50 μl culture medium (with or without tested substances) were added to the upper wells. The chamber was incubated at 37° C. in a humidified atmosphere at 95% air and 5% CO2. After 6 hours, the filter was removed from the chamber, fixed in 95% ethanol for 5 minutes, and stained with hematoxylin for 1 minute. The number of cells migrating through the filter and attached to the lower surface of the filter was counted (Doerr et al., 1996, J Biol Chem 271:2443; Verdoorn et al., 1986, Arch Ophtalmol 104:1216). Triplicate samples were assayed in all experiments.

[4] = tested on: ocular melanocytes; conditions: Hu, 2000; cited from earlier work
[5] = tested on: epidermal melanocytes; conditions: Halaban et al., 1988; cholera toxin in the media; cited from earlier work
[6] = cAMP-elevating agents-deleted medium, epinephrine 1-3,000 ng/ml, α-MSH 1-1,000 ng/ml
[7] = growth factor-deleted medium, 1-1,000 ng/ml

Compound: CNC[C@H](O)c1ccc(O)c(O)c1 [epinephrine, (L)-Epinephrine bitartrate]
- Cell growth (cell number) versus control [1, 6]: dose dependent stimulation of cell growth
- Melanin content/well versus control [2, 6]: significantly greater than that of the controls
- Migration of epidermal melanocytes [3]: stimulated the growth, melanogenesis and migration

Compound: HGF: hepatocyte growth factor, pleiotrophic growth factor (PeproTech)
- Cell growth (cell number) versus control [1, 7]: dose dependent stimulation of cell growth
- Melanin content/well versus control [2, 7]: significantly greater than that of the controls
- Migration cell number versus control ([3]; 1-1,000 ng/ml, 6 hours): dose dependent stimulation of migration
- Growth of cultured ocular melanocytes [4]: stimulates growth of cultured ocular melanocytes

Compound: bFGF: basic fibroblast growth factor (PeproTech)
- Cell growth (cell number) versus control [1, 7]: dose dependent stimulation of cell growth
- Melanin content/well versus control [2, 7]: did not show any significant influence on melanin content

Compound: α-MSH: tridecapeptide with a sequence identical to the first 13 amino acids of adrenocorticotropin (ACTH) (SYSMEHFRWGKPV; ends and bridges not checked; UniProt P01189 138-150, looked up)
- Cell growth (cell number) versus control [1, 6]: dose dependent stimulation of cell growth
- Melanin content/well versus control [2, 6]: significantly greater than that of the controls
- Migration of epidermal melanocytes [3]: stimulated the growth, melanogenesis and migration
- Growth of cultured epidermal melanocytes [5]: failed to stimulate growth
